Experimental data: ChEMBL document CHEMBL1142442, “Synthesis of chimeric tetrapeptide-linked cholic acid derivatives: impending synergistic agents” (Bioorg Med Chem Lett, 2008)
In brackets after ≈: the same amount, converted by molar mass.

Experiments:
Staphylococcus aureus = experiment: Antibacterial activity at Staphylococcus aureus; assay type: functional
Escherichia coli [1] = experiment: Antibacterial activity at Escherichia coli; assay type: functional
Candida albicans [2] = experiment: Antifungal activity at Candida albicans; assay type: functional
MCF7 [3] = experiment: Antiproliferative activity against human MCF7 cells by MTT assay; assay type: functional, cell-based
HEK293 [4] = experiment: Antiproliferative activity against HEK293 cells at upto 80 uM by MTT assay; assay type: cell-based; conditions: human
MCF7 [5] = experiment: Antiproliferative activity against human MCF7 cells at upto 80 uM by MTT assay; assay type: functional, cell-based
Yarrowia lipolytica = experiment: Antifungal activity at Yarrowia lipolytica; assay type: functional
Cryptococcus neoformans = experiment: Antifungal activity at Cryptococcus neoformans; assay type: functional
HEK293 [6] = experiment: Antiproliferative activity against HEK293 cells by MTT assay; assay type: cell-based; conditions: Homo sapiens
Fusarium oxysporum = experiment: Antifungal activity at Fusarium oxysporum; assay type: functional
Candida albicans [7] = experiment: Antifungal activity at Candida albicans assessed as concentration required to lower the MIC of fluconazole from 32 to 1 ug/mL after 48 hrs; assay type: functional
Escherichia coli [8] = experiment: Antibacterial activity at Escherichia coli assessed as concentration required to lower the MIC of erythromycin from 64 to 1 ug/mL after 24 hrs; assay type: functional
Benjaminiella poitrasii = experiment: Antifungal activity at Benjaminiella poitrasii; assay type: functional

Structure (SMILES) | MIC (Staphylococcus aureus) | MIC (Escherichia coli [1]) | MIC (Candida albicans [2]) | IC50 (MCF7 [3]) | Activity (HEK293 [4]) | Activity (MCF7 [5]) | MIC (Yarrowia lipolytica) | MIC (Cryptococcus neoformans) | IC50 (HEK293 [6]) | MIC (Fusarium oxysporum) | MIC (Candida albicans [7]) | MIC (Escherichia coli [8]) | MIC (Benjaminiella poitrasii)
CN(C)[C@@H]1C(O)=C(C(N)=O)C(=O)[C@@]2(O)C(O)=C3C(=O)c4c(O)cccc4[C@@](C)(O)[C@H]3C[C@@H]12 [TETRACYCLINE] | 16 µg/mL (≈ 36 µM) | 8 µg/mL (≈ 18 µM) | – | – | – | – | – | – | – | – | – | – | –
C[C@H](CCC(=O)O)[C@H]1CC[C@H]2[C@@H]3[C@H](O)C[C@@H]4C[C@@H](NC(=O)CCNC(=O)CCNC(=O)CCNC(=O)CCN)CC[C@]4(C)[C@H]3C[C@H](O)[C@]12C | > 128 µg/mL | 32 µg/mL (≈ 46.2 µM) | 32 µg/mL (≈ 46.2 µM) | 200 µM | Non-toxic | Non-toxic | > 128 µg/mL | > 128 µg/mL | > 1000 µM | 64 µg/mL (≈ 92.5 µM) | 1 µg/mL | 4 µg/mL | 24 µg/mL (≈ 34.7 µM)
COC(=O)CC[C@@H](C)[C@H]1CC[C@H]2[C@@H]3[C@H](O)C[C@@H]4C[C@@H](NC(=O)CCNC(=O)CCNC(=O)CCNC(=O)CCNC(=O)OC(C)(C)C)CC[C@]4(C)[C@H]3C[C@H](O)[C@]12C | > 128 µg/mL | > 128 µg/mL | 32 µg/mL (≈ 39.7 µM) | 100 µM | Non-toxic | Non-toxic | 96 µg/mL (≈ 119 µM) | > 128 µg/mL | > 1000 µM | 64 µg/mL (≈ 79.4 µM) | 6 µg/mL | 16 µg/mL | 16 µg/mL (≈ 19.8 µM)
COC(=O)CC[C@@H](C)[C@H]1CC[C@H]2[C@@H]3[C@H](O)C[C@@H]4C[C@@H](NC(=O)CCNC(=O)CCNC(=O)CCNC(=O)CCN)CC[C@]4(C)[C@H]3C[C@H](O)[C@]12C | 64 µg/mL (≈ 90.7 µM) | 96 µg/mL (≈ 136 µM) | 128 µg/mL (≈ 181 µM) | 600 µM | Non-toxic | Non-toxic | > 128 µg/mL | > 128 µg/mL | 700 µM | 32 µg/mL (≈ 45.3 µM) | 3 µg/mL | 8 µg/mL | 24 µg/mL (≈ 34 µM)
CC[C@H]1OC(=O)[C@H](C)[C@@H](O[C@H]2C[C@@](C)(OC)[C@@H](O)[C@H](C)O2)[C@H](C)[C@@H](O[C@@H]2O[C@H](C)C[C@H](N(C)C)[C@H]2O)[C@](C)(O)C[C@@H](C)C(=O)[C@H](C)[C@@H](O)[C@]1(C)O [ERYTHROMYCIN] | 32 µg/mL (≈ 43.6 µM) | 64 µg/mL (≈ 87.2 µM) | – | – | – | – | – | – | – | – | – | – | –
COC(=O)CC[C@@H](C)[C@H]1CC[C@H]2[C@@H]3[C@H](O)C[C@@H]4C[C@@H](NC(=O)CNC(=O)CNC(=O)CNC(=O)CN)CC[C@]4(C)[C@H]3C[C@H](O)[C@]12C | 96 µg/mL (≈ 148 µM) | > 128 µg/mL | 32 µg/mL (≈ 49.2 µM) | 500 µM | Non-toxic | Non-toxic | > 128 µg/mL | > 128 µg/mL | 80 µM | 128 µg/mL (≈ 197 µM) | 6 µg/mL | 12 µg/mL | 64 µg/mL (≈ 98.5 µM)
C[C@H](CCC(=O)O)[C@H]1CC[C@H]2[C@@H]3[C@H](O)C[C@@H]4C[C@H](O)CC[C@]4(C)[C@H]3C[C@H](O)[C@]12C [CHOLIC ACID] | > 128 µg/mL | > 128 µg/mL | > 128 µg/mL | 50 µM | – | – | > 128 µg/mL | > 128 µg/mL | > 1000 µM | > 128 µg/mL | 64 µg/mL | 64 µg/mL | 128 µg/mL (≈ 313 µM)
C[C@@H]1[C@H](O)[C@@H](C)/C=C/C=C/C=C/C=C/C=C/C=C/C=C/[C@H](O[C@@H]2O[C@H](C)[C@@H](O)[C@H](N)[C@@H]2O)C[C@@H]2O[C@](O)(C[C@@H](O)C[C@@H](O)[C@H](O)CC[C@@H](O)C[C@@H](O)CC(=O)O[C@H]1C)C[C@H](O)[C@H]2C(=O)O [AMPHOTERICIN B] | – | – | 2 µg/mL (≈ 2.16 µM) | – | – | – | 16 µg/mL (≈ 17.3 µM) | 16 µg/mL (≈ 17.3 µM) | – | 16 µg/mL (≈ 17.3 µM) | – | – | 16 µg/mL (≈ 17.3 µM)
NCCC(=O)NCCC(=O)NCCC(=O)NCCC(=O)O | – | 128 µg/mL (≈ 423 µM) | > 128 µg/mL | – | – | – | – | – | – | – | 128 µg/mL | > 128 µg/mL | –
CC(C)(C)OC(=O)NCCC(=O)NCCC(=O)NCCC(=O)NCCC(=O)O | – | 64 µg/mL (≈ 159 µM) | > 128 µg/mL | – | – | – | – | – | – | – | 64 µg/mL | > 128 µg/mL | –
CC(CCC(=O)O)C1CCC2C3C(O)CC4CC(NC(=O)CCNC(=O)CCNC(=O)CCNC(=O)CCNC(=O)OC(C)(C)C)CCC4(C)C3CC(O)C12C (stereo not drawn) | > 128 µg/mL | > 128 µg/mL | 32 µg/mL (≈ 40.4 µM) | > 1000 µM | Non-toxic | Non-toxic | > 128 µg/mL | > 128 µg/mL | > 1000 µM | 64 µg/mL (≈ 80.8 µM) | 12 µg/mL | 16 µg/mL | 48 µg/mL (≈ 60.6 µM)
